Assay results: patent US10780090B2, “Heteroaryl compounds useful as inhibitors of SUMO activating enzyme” (Millennium Pharmaceuticals, Inc., priority 2014, dated 2020)

Target: recombinant human SAE enzyme (Homo sapiens (Human), UniProt Q9UBT2)
Test: SAE HTRF enzyme assay
Type: biochemical
Settings: for inhibition at 0.111 µM: read-out: Percent Inhibition
Summary of the method: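 This HTRF format monitors Sumo-Flag–Ubc9-GST thioester formation catalysed by 0.11 nM human SAE with 0.5 μM ATP over 105 min at 24° C. Inhibition is expressed at a single concentration or as IC50.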

[1] = SAE inhibition at compound concentration 0.111 μM
[2] = SAE inhibition, class symbols, legend in nM

Chain of recombinant human SAE enzyme (Q9UBT2 whole entry): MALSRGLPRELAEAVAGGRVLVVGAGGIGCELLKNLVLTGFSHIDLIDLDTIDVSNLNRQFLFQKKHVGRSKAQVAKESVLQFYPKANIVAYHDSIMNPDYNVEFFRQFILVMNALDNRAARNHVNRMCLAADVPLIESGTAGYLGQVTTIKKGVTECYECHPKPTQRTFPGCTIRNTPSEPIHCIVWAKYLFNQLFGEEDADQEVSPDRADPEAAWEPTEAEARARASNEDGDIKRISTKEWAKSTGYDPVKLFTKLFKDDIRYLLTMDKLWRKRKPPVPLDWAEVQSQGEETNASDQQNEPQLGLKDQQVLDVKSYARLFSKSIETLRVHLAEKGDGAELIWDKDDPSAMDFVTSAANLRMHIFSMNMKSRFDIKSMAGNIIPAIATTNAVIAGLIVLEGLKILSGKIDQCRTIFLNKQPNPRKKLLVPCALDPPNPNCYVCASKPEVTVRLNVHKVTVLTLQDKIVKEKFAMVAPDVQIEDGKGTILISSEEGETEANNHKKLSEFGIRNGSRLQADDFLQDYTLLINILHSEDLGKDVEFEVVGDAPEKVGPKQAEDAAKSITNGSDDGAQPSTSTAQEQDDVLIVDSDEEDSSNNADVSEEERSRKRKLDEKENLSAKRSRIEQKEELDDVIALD
Chain of recombinant human SAE enzyme (Q9UBE0 whole entry partner): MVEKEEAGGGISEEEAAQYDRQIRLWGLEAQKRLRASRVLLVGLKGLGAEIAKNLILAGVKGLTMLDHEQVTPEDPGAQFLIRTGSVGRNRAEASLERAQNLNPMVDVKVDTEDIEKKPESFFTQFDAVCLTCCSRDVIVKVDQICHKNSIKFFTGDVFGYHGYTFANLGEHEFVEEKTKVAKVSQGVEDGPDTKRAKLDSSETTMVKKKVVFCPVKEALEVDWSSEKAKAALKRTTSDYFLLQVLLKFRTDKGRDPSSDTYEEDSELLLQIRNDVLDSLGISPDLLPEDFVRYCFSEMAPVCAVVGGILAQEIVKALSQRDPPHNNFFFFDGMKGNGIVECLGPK

Structure (SMILES) | Percent Inhibition (Concentration 0.111 μM) | IC50 (class symbols A/B/C) [nM] | Percent Inhibition [1] [%] | IC50 [2] [nM] | inhibition at 0.111 µM (Concentration 0.111 μM) [%]
Cc1oc(C(=O)c2cncnc2N[C@@H]2C[C@H](COS(N)(=O)=O)[C@@H](O)C2)cc1C1OCCc2ccccc21 (single isomer, unassigned) [I-272a, {(1R,2S,4R)-4-[(5-{4-[(1R)-3,4-dihydro-1H-isochromen-1-yl]-5-methyl-2-furoyl}pyrimidin-4-yl)amino]-2-hydroxycyclopentyl}methyl sulfamate or {(1R,2S,4R)-4-[(5-{4-[(1S)-3,4-dihydro-1H-isochromen-1-yl]-5-methyl-2-furoyl}pyrimidin-4-yl)amino]-2-hydroxycyclopentyl}methyl sulfamate] | 96 | < 10 | – | – | –
NS(=O)(=O)OC[C@H]1C[C@@H](Nc2ncncc2C(=O)c2cc(C3OCCc4ccc(Cl)cc43)cs2)C[C@@H]1O (single isomer, unassigned) [I-261a, [(1R,2S,4R)-4-{[5-({4-[(1R)-7-chloro-3,4-dihydro-1H-isochromen-1-yl]-2-thienyl}carbonyl)pyrimidin-4-yl]amino}-2-hydroxycyclopentyl]methyl sulfamate or [(1R,2S,4R)-4-{[5-({4-[(1S)-7-chloro-3,4-dihydro-1H-isochromen-1-yl]-2-thienyl}carbonyl)pyrimidin-4-yl]amino}-2-hydroxycyclopentyl]methyl sulfamate] | 76 | 10 to 100 | – | – | –
C#Cc1cccc(Cc2csc(C(=O)c3cncnc3N[C@@H]3C[C@H](COS(N)(=O)=O)[C@@H](O)C3)c2)c1 [I-70, {(1R,2S,4R)-4-[(5-{[4-(3-Ethynylbenzyl)-2-thenyl]carbonyl}pyrimidin-4-yl)amino-2-hydroxycyclopentyl}methyl sulfamate] | 98 | < 10 | – | – | –
N#Cc1sc(C(=O)c2cncnc2N[C@@H]2C[C@H](COS(N)(=O)=O)[C@@H](O)C2)cc1[C@@H]1OCCc2ccccc21 (mixture of isomers) [I-324, [(1R,2S,4R)-4-{[5-({5-cyano-4-[(1R)-3,4-dihydro-1H-isochromen-1-yl]-2-thienyl}carbonyl)pyrimidin-4-yl]amino}-2-hydroxycyclopentyl]methyl sulfamate and [(1R,2S,4R)-4-{[5-({5-cyano-4-[(1S)-3,4-dihydro-1H-isochromen-1-yl]-2-thienyl}carbonyl)pyrimidin-4-yl]amino}-2-hydroxycyclopentyl]methyl sulfamate] | – | – | 91 | 10 to 100 | –
NS(=O)(=O)OC[C@H]1C[C@@H](Nc2ncncc2C(=O)c2cc([C@@H]3OCCc4ccc(F)cc43)c(Cl)s2)C[C@@H]1O (single isomer, unassigned) [I-294, [(1R,2S,4R)-4-[[5-[5-chloro-4-[(1R)-7-fluoroisochroman-1-yl]thiophene-2-carbonyl]pyrimidin-4-yl]amino]-2-hydroxy-cyclopentyl]methyl sulfamate or [(1R,2S,4R)-4-[[5-[5-chloro-4-[(1S)-7-fluoroisochroman-1-yl]thiophene-2-carbonyl]pyrimidin-4-yl]amino]-2-hydroxy-cyclopentyl]methyl sulfamate] | – | – | 99 | < 10 | –
NS(=O)(=O)OC[C@H]1C[C@@H](Nc2ncncc2C(=O)c2ccc(Cc3ccccc3)o2)[C@H](O)[C@@H]1O [I-87, [(1R,2R,3S,4R)-4-{[5-(5-benzyl-2-furoyl)pyrimidin-4-yl]amino}-2,3-dihydroxycyclopentyl]methyl sulfamate] | – | – | – | – | 94
NS(=O)(=O)OC[C@H]1C[C@@H](Nc2ncncc2C(=O)c2ccc(Cc3cccc(Br)c3)o2)C[C@@H]1O [I-82, [(1R,2S,4R)-4-({5-[5-(3-bromobenzyl)-2-furoyl]pyrimidin-4-yl}amino)-2-hydroxycyclopentyl]methyl sulfamate] | – | – | – | – | 99
NS(=O)(=O)OC[C@H]1C[C@@H](Nc2ncncc2C(=O)c2cc([C@@H]3OCC4(CC4)c4ccccc43)cs2)C[C@@H]1O (single isomer, unassigned) [I-281a, [(1R,2S,4R)-2-hydroxy-4-{[5-({4-[(1′R)-1′H-spiro[cyclopropane-1,4′-isochromen]-1′-yl]-2-thienyl}carbonyl)pyrimidin-4-yl]amino}cyclopentyl]methyl sulfamate or [(1R,2S,4R)-2-hydroxy-4-{[5-({4-[(1′S)-1′H-spiro[cyclopropane-1,4′-isochromen]-1′-yl]-2-thienyl}carbonyl)pyrimidin-4-yl]amino}cyclopentyl]methyl sulfamate] | – | – | 74 | 10 to 100 | –
CC(=O)c1csc(C(=O)c2cncnc2N[C@@H]2C[C@H](COS(N)(=O)=O)[C@@H](O)C2)c1 [I-229, [(1R,2S,4R)-4-{(5-[(4-Acetyl-2-thienyl)carbonyl]pyrimidin-4-yl}amino)-2-hydroxycyclopentyl]methyl sulfamate] | – | 100 to 1000 | – | – | 25
CC(C)(O)c1csc(C(=O)c2cncnc2N[C@@H]2C[C@H](COS(N)(=O)=O)[C@@H](O)C2)c1 [I-240, {(1R,2S,4R)-2-Hydroxy-4-[(5-{[4-(2-hydroxypropan-2-yl)-2-thienyl]carbonyl}pyrimidin-4-yl)amino]cyclopentyl}methyl sulfamate] | – | 100 to 1000 | – | – | 19
N[C@@H](c1cccc(Cl)c1)c1cc(C(=O)c2cncnc2N[C@@H]2C[C@H](COS(N)(=O)=O)[C@@H](O)[C@H]2O)sc1Cl (single isomer, unassigned) [I-14b, [(1R,2R,3S,4R)-4-{[5-({4-[(S)-Amino(3-chlorophenyl)methyl]-5-chloro-2-thienyl)carbonyl)pyrimidin-4-yl]amino}-2,3-dihydroxycyclopentyl]methyl sulfamate or [(1R,2R,3S,4R)-4-{[5-({4-[(R)-Amino(3-chlorophenyl)methyl]-5-chloro-2-thienyl}carbonyl)pyrimidin-4-yl]amino}-2,3-dihydroxycyclopentyl]methyl sulfamate] | 95 | < 10 | – | – | –
C[C@@]1(c2csc(C(=O)c3cncnc3N[C@@H]3C[C@H](COS(N)(=O)=O)[C@@H](O)C3)c2)OCCc2ccc(Cl)cc21 (mixture of isomers) [I-317, [(1R,2S,4R)-4-{[5-({4-[(1R)-7-chloro-1-methyl-3,4-dihydro-1H-isochromen-1-yl]-2-thienyl}carbonyl)pyrimidin-4-yl]amino}-2-hydroxycyclopentyl]methyl sulfamate and [(1R,2S,4R)-4-{[5-({4-[(1S)-7-chloro-1-methyl-3,4-dihydro-1H-isochromen-1-yl]-2-thienyl}carbonyl)pyrimidin-4-yl]amino}-2-hydroxycyclopentyl]methyl sulfamate] | – | – | 97 | < 10 | –
C[C@](O)(c1ccccc1)c1coc(C(=O)c2cncnc2N[C@@H]2C[C@H](COS(N)(=O)=O)[C@@H](O)C2)c1 (single isomer, unassigned) [I-58a, {(1R,2S,4R)-2-hydroxy-4-[(5-{4-[(1S)-1-hydroxy-1-phenylethyl]-2-furoyl}pyrimidin-4-yl)amino]cyclopentyl}methyl sulfamate or {(1R,2S,4R)-2-hydroxy-4-[(5-{4-[(1R)-1-hydroxy-1-phenylethyl]-2-furoyl}pyrimidin-4-yl)amino]cyclopentyl}methyl sulfamate] | 87 | 10 to 100 | – | – | –
Cc1ccn(Cc2csc(C(=O)c3cncnc3N[C@@H]3C[C@H](COS(N)(=O)=O)[C@@H](O)C3)c2)c1 [I-170, [(1R,2S,4R)-2-Hydroxy-4-({[5-({4-[(3-methyl-1H-pyrrol-1-yl)methyl]-2-thienyl}carbonyl)pyrimidin-4-yl]amino}cyclopentyl]methyl sulfamate] | 91 | 10 to 100 | – | – | –
NS(=O)(=O)OC[C@H]1C[C@@H](Nc2ncncc2C(=O)c2cc([C@@H]3OCC4(CC4)c4ccccc43)cs2)C[C@@H]1O (single isomer, unassigned) [I-281b, [(1R,2S,4R)-2-hydroxy-4-{[5-({4-[(1′R)-1′H-spiro[cyclopropane-1,4′-isochromen]-1′-yl]-2-thienyl}carbonyl)pyrimidin-4-yl]amino}cyclopentyl]methyl sulfamate or [(1R,2S,4R)-2-hydroxy-4-{[5-({4-[(1′S)-1′H-spiro[cyclopropane-1,4′-isochromen]-1′-yl]-2-thienyl}carbonyl)pyrimidin-4-yl]amino}cyclopentyl]methyl sulfamate] | – | – | 99 | < 10 | –
NS(=O)(=O)OC[C@H]1C[C@@H](Nc2ncncc2C(=O)c2cc(Cn3ccc4ccncc43)cs2)C[C@@H]1O [I-186, {(1R,2S,4R)-2-hydroxy-4-[(5-{[4-(1H-pyrrolo[2,3-c]pyridin-1-ylmethyl)-2-thienyl]carbonyl}pyrimidin-4-yl)amino]cyclopentyl}methyl sulfamate] | – | 10 to 100 | – | – | 83
Cc1sc(C(=O)c2cncnc2N[C@@H]2C[C@H](COS(N)(=O)=O)[C@@H](O)C2)nc1[C@H](O)c1cccc(Cl)c1 (single isomer, unassigned) [I-355b, [(1R,2S,4R)-4-{[5-({4-[(R)-(3-chlorophenyl)(hydroxy)methyl]-5-methyl-1,3-thiazol-2-yl}carbonyl)pyrimidin-4-yl]amino}-2-hydroxycyclopentyl]methyl sulfamate or [(1R,2S,4R)-4-{[5-({4-[(S)-(3-chlorophenyl)(hydroxy)methyl]-5-methyl-1,3-thiazol-2-yl}carbonyl)pyrimidin-4-yl]amino}-2-hydroxycyclopentyl]methyl sulfamate] | – | – | 71 | 10 to 100 | –
